In this experiment the target is T1, apelin receptor (APJ) (Homo sapiens, UniProt P35414).
T1 sequence (P35414 1-380): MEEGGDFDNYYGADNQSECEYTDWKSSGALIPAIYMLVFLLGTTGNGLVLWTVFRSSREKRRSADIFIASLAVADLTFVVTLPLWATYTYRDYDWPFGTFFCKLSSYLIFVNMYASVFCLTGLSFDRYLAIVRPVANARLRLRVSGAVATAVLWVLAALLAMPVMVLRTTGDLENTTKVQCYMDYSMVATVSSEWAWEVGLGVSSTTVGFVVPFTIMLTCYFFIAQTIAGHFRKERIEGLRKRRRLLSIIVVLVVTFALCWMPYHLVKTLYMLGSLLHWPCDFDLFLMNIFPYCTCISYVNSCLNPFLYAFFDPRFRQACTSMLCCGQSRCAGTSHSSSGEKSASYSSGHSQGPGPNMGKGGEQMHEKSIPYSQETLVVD
In words: in vitro apelin agonist activity (methods of Giddings et al., Apelin-13 as positive control). It is filed as cell-based. From the text: The compounds above were studied for their in vitro activity as apelin agonists using the methods described by Giddings et al. Giddings et al., 2010 Int J High Thro Screen. 1:39-47, the contents of which are hereby incorporated by reference in its entirety.

The mark [1] stands for this setting: apelin agonist activity, Giddings et al. method, read-out: agonist activity (EC50).

Where two headings read alike, the source gives them in different places.

For orientation: EC50 means the concentration that produces a half-maximal response.

For `CCCCCCNC(=O)C[C@H](CC(C)C)NC(=O)c1cc(-c2c(OC)cccc2OC)n(CC(C)C)n1` [compound 154, (S)-5-(2,6-Dimethoxyphenyl)-N-(1-(hexylamino)-5-methyl-1-oxohexan-3-yl)-1-isobutyl-1H-pyrazole-3-carboxamide], the EC50 under setting [1] was less than 10 µM.

On to `COc1cccc(OC)c1-c1cc(C(=O)N[C@H](CC(=O)NCC2CCCCC2)CC(C)C)nn1CC(C)C` [compound 155, (S)—N-(1-((Cyclohexylmethyl)amino)-5-methyl-1-oxohexan-3-yl)-5-(2,6-dimethoxyphenyl)-1-isobutyl-1H-pyrazole-3-carboxamide], for which the EC50 under setting [1] is less than 10 µM.

In the case of `CCCCCNC(=O)C[C@H](CC(C)C)NC(=O)c1cc(-c2c(OC)cccc2OC)n(CC(C)C)n1` [compound 156, (S)-5-(2,6-Dimethoxyphenyl)-1-isobutyl-N-(5-methyl-1-oxo-1-(pentylamino)hexan-3-yl)-1H-pyrazole-3-carboxamide], the EC50 under setting [1] is less than 10 µM.

For `CCCNC(=O)C[C@H](CC(C)C)NC(=O)c1cc(-c2c(OC)cccc2OC)n(CC(C)C)n1` [compound 157, (S)-5-(2,6-dimethoxyphenyl)-1-isobutyl-N-(5-methyl-1-oxo-1-(propylamino)hexan-3-yl)-1H-pyrazole-3-carboxamide], the EC50 under setting [1] was less than 10 µM.

For `CCNC(=O)C[C@H](CC(C)C)NC(=O)c1cc(-c2c(OC)cccc2OC)n(CC(C)C)n1` [compound 161, (S)-5-(2,6-Dimethoxyphenyl)-N-(1-(ethylamino)-5-methyl-1-oxohexan-3-yl)-1-isobutyl-1H-pyrazole-3-carboxamide], the EC50 under setting [1] was less than 10 µM.

On to `COc1cccc(OC)c1-c1cc(C(=O)N[C@H](CC(=O)NC(C)C)CC(C)C)nn1CC(C)C` [compound 162], for which the EC50 under setting [1] is less than 10 µM.

`COc1cccc(OC)c1-c1cc(C(=O)N[C@H](CC(=O)Nc2ccc(F)cc2)CC(C)C)nn1CC(C)C` [compound 163, (S)-5-(2,6-Dimethoxyphenyl)-N-(1-((4-fluorophenyl)amino)-5-methyl-1-oxohexan-3-yl)-1-isobutyl-1H-pyrazole-3-carboxamide]: under setting [1], the EC50 was less than 10 µM.

Take `COC(=O)C[C@H](CC(C)C)NC(=O)c1cc(-c2c(OC)cccc2OC)n(CC(C)C)n1` [compound 164]: the EC50 under setting [1] is less than 10 µM.

For `COc1c(F)cc(F)c(OC)c1-c1cc(C(=O)N[C@H](CC(=O)O)CC(C)C)nn1CC(C)C` [compound 167], the EC50 under setting [1] was less than 10 µM.

On to `CCCCNC(=O)C[C@H](CC(C)C)NC(=O)c1cc(-c2c(OC)c(F)cc(F)c2OC)n(CC(C)C)n1` [compound 168], for which the EC50 under setting [1] is less than 10 µM.

Consider `COc1cccc(OC)c1-c1cc(C(=O)N[C@H](C(=O)O)C2CCCCC2)nn1CC(C)C` [compound 169, (S)-2-Cyclohexyl-2-(5-(2,6-dimethoxyphenyl)-1-isobutyl-1H-pyrazole-3-carboxamido)acetic acid], for which the EC50 is less than 10 µM.

On to `CCCN(C)C(=O)C[C@H](CC(C)C)NC(=O)c1cc(-c2c(OC)cccc2OC)n(CC(C)C)n1` [compound 171], for which, under setting [1], the EC50 was less than 10 µM.

In the case of `COc1cccc(OC)c1-c1cc(C(=O)N[C@H](CC(=O)NC2CC2)CC(C)C)nn1CC(C)C` [compound 172], the EC50 under setting [1] was less than 10 µM.

In the case of `COc1cccc(OC)c1-c1cc(C(=O)N[C@H](CC(=O)NCC(=O)O)CC(C)C)nn1CC(C)C` [compound 174], the EC50 under setting [1] was less than 10 µM.

As to `COc1cccc(OC)c1-c1cc(C(=O)N[C@H](CC(=O)NCC(N)=O)CC(C)C)nn1CC(C)C` [compound 175], under setting [1], the EC50 is less than 10 µM.

Take `CNC(=O)CNC(=O)C[C@H](CC(C)C)NC(=O)c1cc(-c2c(OC)cccc2OC)n(CC(C)C)n1` [compound 176]: the EC50 under setting [1] is less than 10 µM.

For `COc1cccc(OC)c1-c1cc(C(=O)N[C@H](CC(=O)O)CC(C)C)nn1CC1CC1` [compound 181], under setting [1], the EC50 is less than 10 µM.

Take `COc1cccc(OC)c1-c1cc(C(=O)N[C@H](CC(=O)O)CC(C)C)nn1C1CCCC1` [compound 182]: the EC50 under setting [1] is less than 10 µM.

With `COC(=O)CNC(=O)C[C@H](CC(C)C)NC(=O)c1cc(-c2c(OC)cccc2OC)n(CC2CC2)n1` [compound 183], the EC50 under setting [1] was less than 10 µM.

Turning to `COC(=O)CNC(=O)C[C@H](CC(C)C)NC(=O)c1cc(-c2c(OC)cccc2OC)n(C2CCCC2)n1` [compound 184], the EC50 under setting [1] is less than 10 µM.

On to `COc1cccc(OC)c1-c1cc(C(=O)N[C@H](CC(=O)NC2CCCC2)CC(C)C)nn1CC(C)C` [compound 185], for which, under setting [1], the EC50 was less than 10 µM.

Take `CCCn1nc(C(=O)N[C@H](CC(=O)NCC(=O)OC)CC(C)C)cc1-c1c(OC)cccc1OC` [compound 186]: the EC50 under setting [1] was less than 10 µM.

Turning to `COC(=O)CNC(=O)C[C@H](CC(C)C)NC(=O)c1cc(-c2c(OC)cccc2OC)n(CC(C)(C)C)n1` [compound 187], the EC50 under setting [1] was less than 10 µM.

Turning to `COC(=O)CNC(=O)[C@H](CC(C)C)NC(=O)c1cc(-c2c(OC)cccc2OC)n(CC(C)C)n1` [compound 188], the EC50 under setting [1] was less than 10 µM.

On to `COC(=O)CNC(=O)[C@H](CC(C)C)NC(=O)c1cc(-c2c(OC)cccc2OC)n(C2CCCCC2)n1` [compound 189], for which, under setting [1], the EC50 was less than 10 µM.

Turning to `CCOC(=O)CCNC(=O)[C@H](CC(C)C)NC(=O)c1cc(-c2c(OC)cccc2OC)n(CC(C)C)n1` [compound 191], under setting [1], the EC50 was less than 10 µM.

With `COC(=O)CNC(=O)[C@H](CC1CCCCC1)NC(=O)c1cc(-c2c(OC)cccc2OC)n(CC(C)C)n1` [compound 198], the EC50 reads like this: under setting [1], less than 10 µM; (mean based on three runs, read-out: mean activity (EC50)) 0.053 µM.

The compound `COc1cccc(OC)c1-c1cc(C(=O)N[C@@H](CC2CCCCC2)C(=O)O)nn1CC(C)C` [compound 204] displayed an EC50 of less than 10 µM.

For the compound `COC(=O)CNC(=O)[C@H](Cc1ccccc1)NC(=O)c1cc(-c2c(OC)cccc2OC)n(CC(C)C)n1` [compound 205], the EC50 under setting [1] is less than 10 µM.

Turning to `CCCC[C@H](NC(=O)c1cc(-c2c(OC)cccc2OC)n(CC(C)C)n1)C(=O)NCC(=O)OC` [compound 212], under setting [1], the EC50 was less than 10 µM.

Regarding `COC(=O)CNC(=O)[C@H](CC1CCCCC1)NC(=O)c1cc(-c2cc(OC)ccc2OC)n(CC(C)C)n1` [compound 217], the EC50 under setting [1] was less than 10 µM.

For `COC(=O)CN(C)C(=O)C[C@H](CC(C)C)NC(=O)c1cc(-c2c(OC)cccc2OC)n(CC(C)C)n1` [compound 218], the EC50 under setting [1] was less than 10 µM.

In the case of `COC(=O)CN(C)C(=O)[C@H](CC(C)C)NC(=O)c1cc(-c2c(OC)cccc2OC)n(CC(C)C)n1` [compound 219], the EC50 under setting [1] is less than 10 µM.

In the case of `CCCNC(=O)[C@H](CCc1ccccc1)NC(=O)c1cc(-c2c(OC)cccc2OC)n(CC(C)C)n1` [compound 225], the EC50 under setting [1] was less than 10 µM.

On to `COc1cccc(OC)c1-c1cc(C(=O)N[C@@H](CCc2ccccc2)C(=O)N2CCCC2)nn1CC(C)C` [compound 226], for which, under setting [1], the EC50 was less than 10 µM.

On to `COC(=O)CNC(=O)C[C@H](CC(C)C)N(C)C(=O)c1cc(-c2c(OC)cccc2OC)n(CC(C)C)n1` [compound 238], for which, under setting [1], the EC50 was less than 10 µM.

Regarding `COC(=O)CNC(=O)C[C@H](CCCC1CCCCC1)NC(=O)c1cc(-c2c(OC)cccc2OC)n(CC(C)C)n1` [compound 242], under setting [1], the EC50 was less than 10 µM.

For the compound `CCC(O)CNC(=O)C[C@H](CCN1CCCCC1)NC(=O)c1cc(-c2c(OC)cccc2OC)n(CC(C)C)n1` (some centres unmarked) [compound 245], under setting [1], the EC50 is less than 10 µM.

Regarding `COc1cccc(OC)c1-c1cc(C(=O)N[C@@H](CCN2CCCCC2)CC(=O)NC2CCC2)nn1CC(C)C` [compound 247], under setting [1], the EC50 is less than 10 µM.

For the compound `COCCNC(=O)C[C@H](CCN1CCCCC1)NC(=O)c1cc(-c2c(OC)cccc2OC)n(CC(C)C)n1` [compound 249], under setting [1], the EC50 was less than 10 µM.

Consider `COc1cccc(OC)c1-c1cc(C(=O)N[C@@H](CCN2CCCCC2)CC(=O)O)nn1CC(C)C` [compound 251], for which the EC50 under setting [1] was less than 10 µM.

Take `COCCN(C)C(=O)[C@H](CCC1CCCCC1)NC(=O)c1cc(-c2c(OC)cccc2OC)n(CC(C)C)n1` [compound 256]: the EC50 under setting [1] was less than 10 µM.

In the case of `COc1cccc(OC)c1-c1cc(C(=O)NC(CC(=O)O)C2CCCCC2)nn1-c1ccc(F)cc1` (centres unmarked) [compound 257], under setting [1], the EC50 is less than 10 µM.

As for `COC(=O)CNC(=O)CC(NC(=O)c1cc(-c2c(OC)cccc2OC)n(-c2ccc(F)cc2)n1)C1CCCCC1` (centres unmarked) [compound 258], the EC50 under setting [1] was less than 10 µM.

For the compound `C=C[C@@H](CC(=O)NC1CCC1)NC(=O)c1cc(-c2c(OC)cccc2OC)n(C2CCCC2)n1` [compound 263], the EC50 under setting [1] is less than 10 µM.

Consider `COc1cccc(OC)c1-c1cc(C(=O)N[C@@H](CCC2CCCCC2)Cc2nnn[nH]2)nn1CC(C)C` [compound 265], for which the EC50 under setting [1] is less than 10 µM.

The values are drawn from patent US10377718B2, “Apelin receptor (APJ) agonists and uses thereof” (Research Triangle Institute, priority 2014, dated 2019).
